Assay results reported in BindingDB's records for doi:10.3109/14756366.2010.504674 (University of Bonn, 2011).

Key:
Experiment in all cases: Cholinesterase Inhibition Assay
Details in all cases: pH 7.3; 25 °C
Cholinesterase = Cholinesterase (Homo sapiens, UniProt P06276)
Procedure: (§1) Cholinesterase inhibition was assayed spectrophotometrically at 412 nm at 25°C [Pietsch et al., J. Med. Chem., 48:8270-8288; Ellman et al., Biochem. Pharmacol., 7:88-95]. Product formation was monitored over 5 min. Assay buffer was 100 mM sodium phosphate, 100 mM NaCl, pH 7.3. Enzyme stock solutions were prepared with assay buffer in the following concentrations ∼ 100 U/mL (EeAChE),∼ 3 U/mL (hAChE), ∼ 10 U/mL (hBChE), and were kept at 0°C. Appropriate dilutions of the EeAChE (1:30) and hBChE (1:10) solutions were done immediatelybefore starting the measurements. Solutions of ATCh (5, 10, 15, or 20 mM), BTCh (10 mM), and DTNB (7 mM) were prepared in assay buffer and kept at 0°C. Stock solutions of the inhibitors were prepared in acetonitrile. EeAChE was assayed as follows. Into a cuvette containing 830 μL assay buffer, 50 μL of the DTNB solution, 50 μL acetonitrile, 10 μL of an inhibitor solution, and 10 μL of an enzyme solution were added and thoroughly mixed. After incubation for 15 minat 25°C, the reaction was initiated by adding 50 μL of the ATCh solution. The following final concentration were used, ∼ 0.033 U/mL of EeAChE, 250, 500, 750, or 1000 μM of ATCh, 350 μM of DTNB, 6% acetonitrile. Similarly, hAChE (final concentration ∼ 0.03 U/mL) was assayed with 500 μM ATCh, and hBChE (finalconcentration ∼ 0.01 U/mL) with 500 μM BTCh. The rates of enzyme-catalyzed substrate hydrolysis were corrected by those of the non-enzymatic hydrolysis ofATCh or BTCh, respectively, as determined by using 10 μL of assay buffer, instead of the enzyme solution. A Km value of 550 μM19 for the substrate ATCh used in the EeAChE assay was taken for kinetic analyses.

Acetylcholinesterase [1] = target: Acetylcholinesterase (Homo sapiens, UniProt P22303)
Procedure: as §1

Acetylcholinesterase [2] = target: Acetylcholinesterase (Electrophorus electricus, UniProt O42275)
Procedure: as §1

Acetylcholinesterase (Electrophorus electricus, UniProt O42275), sequence (O42275 whole entry): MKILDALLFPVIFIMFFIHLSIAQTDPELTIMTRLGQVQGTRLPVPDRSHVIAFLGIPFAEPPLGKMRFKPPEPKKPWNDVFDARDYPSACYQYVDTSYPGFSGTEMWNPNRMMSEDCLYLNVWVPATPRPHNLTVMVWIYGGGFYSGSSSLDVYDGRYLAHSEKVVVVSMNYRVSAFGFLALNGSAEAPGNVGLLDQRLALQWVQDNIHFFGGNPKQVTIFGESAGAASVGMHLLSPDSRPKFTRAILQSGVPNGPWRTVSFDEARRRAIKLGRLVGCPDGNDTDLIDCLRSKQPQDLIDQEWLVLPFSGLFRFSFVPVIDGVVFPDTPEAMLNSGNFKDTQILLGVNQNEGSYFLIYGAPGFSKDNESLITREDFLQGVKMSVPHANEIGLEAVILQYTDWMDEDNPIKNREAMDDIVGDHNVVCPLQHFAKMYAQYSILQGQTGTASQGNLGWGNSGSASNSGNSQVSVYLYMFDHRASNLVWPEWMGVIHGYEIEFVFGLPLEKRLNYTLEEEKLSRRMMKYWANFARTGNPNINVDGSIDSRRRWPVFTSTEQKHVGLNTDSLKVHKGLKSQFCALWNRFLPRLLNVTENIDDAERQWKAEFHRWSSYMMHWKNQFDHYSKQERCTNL
Cholinesterase, sequence (P06276 whole entry): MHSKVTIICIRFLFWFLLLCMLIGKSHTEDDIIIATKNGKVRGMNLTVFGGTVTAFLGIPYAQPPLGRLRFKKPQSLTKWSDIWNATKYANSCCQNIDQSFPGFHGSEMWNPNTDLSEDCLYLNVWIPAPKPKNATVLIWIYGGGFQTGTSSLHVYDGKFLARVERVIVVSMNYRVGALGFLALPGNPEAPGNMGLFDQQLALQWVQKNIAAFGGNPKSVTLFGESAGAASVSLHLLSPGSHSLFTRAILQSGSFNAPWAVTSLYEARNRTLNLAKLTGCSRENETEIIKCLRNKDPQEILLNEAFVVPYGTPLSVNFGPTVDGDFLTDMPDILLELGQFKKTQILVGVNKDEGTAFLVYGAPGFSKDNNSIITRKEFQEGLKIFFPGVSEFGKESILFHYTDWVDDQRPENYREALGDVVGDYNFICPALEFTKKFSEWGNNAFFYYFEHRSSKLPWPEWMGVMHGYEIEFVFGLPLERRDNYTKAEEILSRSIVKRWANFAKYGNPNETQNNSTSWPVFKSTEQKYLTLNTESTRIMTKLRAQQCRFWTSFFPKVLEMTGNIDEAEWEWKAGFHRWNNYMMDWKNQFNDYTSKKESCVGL
Acetylcholinesterase (Homo sapiens, UniProt P22303), sequence (P22303 whole entry): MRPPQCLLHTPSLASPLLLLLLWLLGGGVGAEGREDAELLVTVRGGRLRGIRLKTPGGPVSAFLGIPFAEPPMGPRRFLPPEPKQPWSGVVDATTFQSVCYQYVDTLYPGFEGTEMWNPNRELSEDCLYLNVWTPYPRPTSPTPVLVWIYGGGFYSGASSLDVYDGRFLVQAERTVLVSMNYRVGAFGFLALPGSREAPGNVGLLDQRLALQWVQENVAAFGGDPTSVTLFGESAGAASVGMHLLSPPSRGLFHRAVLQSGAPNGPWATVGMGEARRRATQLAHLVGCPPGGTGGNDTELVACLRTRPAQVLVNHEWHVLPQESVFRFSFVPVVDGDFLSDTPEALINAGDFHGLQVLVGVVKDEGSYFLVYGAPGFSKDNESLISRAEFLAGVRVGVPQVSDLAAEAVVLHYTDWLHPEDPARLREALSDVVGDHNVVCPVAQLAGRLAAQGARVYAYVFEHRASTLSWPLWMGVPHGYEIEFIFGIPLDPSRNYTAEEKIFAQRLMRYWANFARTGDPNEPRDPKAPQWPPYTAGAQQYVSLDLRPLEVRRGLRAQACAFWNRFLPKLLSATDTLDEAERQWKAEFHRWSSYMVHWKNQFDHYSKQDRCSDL

| SMILES | IC50 (Cholinesterase) [µM] | IC50 (Acetylcholinesterase [1]) [µM] | IC50 (Acetylcholinesterase [2]) [µM] | Ki (Acetylcholinesterase [2]) [µM] |
| --- | --- | --- | --- | --- |
| C1=Nc2sc3c(c2C2=NCCN12)CCCC3 [2,3,8,9,10,11-Hexahydro-benzothieno[3,2-e]imidazo[1,2-c]pyrimidine (11)] | 88 | 56 | 1.75 | 1.32 |
| O=C1c2c(sc3c2CCN(Cc2ccccc2)C3)NC2=NCCN12 [8-Benzyl-2,3,6,7,8,9-hexahydro-imidazo[1,2-a]pyrido[4′,3′:4,5]thieno[2,3-d]pyrimidin-5(11H)-one (9)] | > 200 | 14.2 | 1.35 | 1.55 |
| O=C1c2c(sc3c2CCCC3)NC2=NCCN12 [2,3,6,7,8,9-Hexahydro-benzothieno[2,3-d]-imidazo[1,2-a]pyrimidin-5(11H)-one (7)] | > 200 | > 200 | > 75 | – |
| C1=Nc2sc3c(c2C2=NCCCN12)CCN(Cc1ccccc1)C3 [10-Benzyl-3,4,9,10,11,12-hexahydro-2H-pyrido[4′,3′:4,5]thieno[3,2-e]pyrimido[1,2-c]pyrimidin (14)] | 119 | 62.5 | 1.73 | 1.5 |
| C1=Nc2sc3c(c2C2=NCCN12)CCN(Cc1ccccc1)C3 [9-Benzyl-2,3,8,9,10,11-hexahydro-imidazo[1,2-c]pyrido[4′,3′:4,5]thieno[3,2-e]pyrimidine (13)] | 89.9 | 21.8 | 3.09 | 2.36 |
| O=C1c2c(sc3c2CCN(Cc2ccccc2)C3)NC2=NCCCN12 [9-Benzyl-2,3,4,7,8,9,10,12-octahydro-6H-pyrido[4′,3′:4,5]thieno[2,3-d]pyrimido[1,2-a]pyrimidin-6-one (10)] | 51.5 | 5.69 | 1.51 | 2.07 |
| O=C1c2c(sc3c2CCCC3)NC2=NCCCN12 [2,3,4,7,8,9,10,12-Octahydro-6H-benzothieno[2,3-d]pyrimido[1,2-a]pyrimidin-6-one (8)] | > 200 | > 200 | > 75 | – |
| C1=Nc2sc3c(c2C2=NCCCN12)CCCC3 [3,4,9,10,11,12-Hexahydro-2H-benzothieno[3,2-e]pyrimido[1,2-c]pyrimidine (12)] | 131 | 20.5 | 2.26 | 1.92 |
